The source of these data is PMC3502511, “Inhibition of the Prokaryotic Pentameric Ligand-Gated Ion Channel ELIC by Divalent Cations” (PLoS Biology, 2012).

Common to all, as to format: cell-based, Erwinia chrysanthemi
One assay concerns the target T1, ELIC D113A/D158A (Dickeya chrysanthemi, UniProt P0C7B7, D113A/D158A/INS163G).
T1 construct: expressed in transfected cells; host or cells: X. laevis oocytes
In words: cell-based. As to the method:
(§1) Constructs containing the gene of either the WT or mutant channels preceded by the signal sequence of the chicken α7nAchR were cloned into the pTLN vector for expression in X. laevis oocytes. After linearization of the plasmid DNA by MluI, capped complementary RNA was transcribed with the mMessage mMachine kit (Ambion) and purified with the RNeasy kit (Qiagen). For expression, 1–50 ng of RNA was injected into defolliculated oocytes. Two-electrode voltage clamp measurements were performed 1 d after injection at 20°C (OC-725B, Warner Instrument Corp.). Currents were recorded in bath solutions containing 10 mM HEPES (pH 7), 130 mM NaCl, and the indicated concentrations of cysteamine and divalent cations. In case of solutions containing Zn^2+, cysteamine was replaced by propylamine. The membrane potential in all dose–response measurements was set to −40 mV. As ELIC is permeable to divalent cations, we tested if endogenous calcium-activated chloride channels affected our measurements. To chelate intracellular calcium ions, the oocytes were incubated for 15 to 30 min in bath solutions lacking divalent ions but containing 10 µM BAPTA-AM.

The target of another assay is T2, ELIC WT (Dickeya chrysanthemi, UniProt P0C7B7, INS163G).
T2 construct: expressed in transfected cells; host or cells: X. laevis oocytes (cRNA injection, pTLN vector)
In words: cell-based. The conditions noted are these: Ki app, Schild analysis. As to the method: as §1

In a further assay the target is T3, ELIC R91A (Dickeya chrysanthemi, UniProt P0C7B7, INS163G/R91A).
T3 construct: expressed in transfected cells; host or cells: X. laevis oocytes
Briefly: Two-electrode voltage clamp, ELIC R91A in oocytes. As to the method:
as §1
On the technique in general: In two-electrode clamp one electrode senses voltage and the other passes current.

For `CC(=O)OCC[N+](C)(C)C` [ACh, acetylcholine], the Ki at ELIC D113A/D158A turned out to be 2100 µM; on ELIC WT (WT/1 mM Ca^2+) it was 2200 µM; at ELIC WT (WT/.25 mM Ca^2+), 1200 µM; at ELIC WT (WT/.5 mM Ca^2+), 1300 µM; at ELIC WT (WT, agonist cysteamine) it was 1600 µM; on ELIC R91A, 170 µM.
